Experimental findings from PubChem BioAssay (NCI) are described below.

What all share (test): NCI anticancer screen, dose series, 48 h
The subject of assay [1] is K-562 leukemia.
In assay [2] the test system is KM12 colon.
The test system of assay [3] is KM20L2 colon.
Assay [4] has as its system MCF7 breast.
For assay [5], the system named is MOLT-4 leukemia.
The subject of assay [6] is NCI-H226 lung.
Assay [7] relates to NCI-H460 lung.
The subject of assay [8] is NCI/ADR-RES ovarian.
Assay [9] has as its system RXF 393 renal.
For assay [10], the system named is SF-295 CNS.
The test system of assay [11] is SNB-19 CNS.
The test system of assay [12] is SNB-75 CNS.
Assay [13] relates to T-47D breast.

“And” between values parts separate entries of the source, which are not always exact repeats. Equal entries are not always repeated.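 Where inhibition never reached the appropriate level, the endpoint shown equals the highest concentration tested. Otherwise, values were interpolated linearly from a five-concentration, 48-hour dose response in 96-well plates. GI50 is the concentration that inhibits growth by half. The concentration for full growth arrest is given as TGI.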 Where only a bound is given, the exact number is not on record here.

`COC(=O)C1c2cc3c(c(O)c2C(O)CC1(C)O)C(=O)c1c(O)cc2c(c1C3=O)OC1OC2(C)C(O)C(N(C)C)C1O` (stereo unspecified): the TGI in assay [1] was greater than 100000 nM; in assay [2] it was greater than 19900 nM; in assay [3], greater than 100000 nM; in assay [4], 2630 nM; in assay [5], greater than 100000 nM; in [6] it was greater than 31900 nM. The TGI is greater than 100000 nM in assay [7]; 3050 nM in assay [8]; greater than 100000 nM in assay [9]; greater than 100000 nM in assay [10]; greater than 100000 nM in assay [11]; greater than 20900 nM in [12]. The same compound registered a TGI in [13] of 4600 nM.

For `CC1OC(=O)C(C(C)C)NC(=O)C(C(C)C)OC(=O)C(C(C)C)NC(=O)C(C)OC(=O)C(C(C)C)NC(=O)C(C(C)C)OC(=O)C(C(C)C)NC(=O)C(C)OC(=O)C(C(C)C)NC(=O)C(C(C)C)OC(=O)C(C(C)C)NC1=O` (stereo unspecified), the GI50 was less than 0.1 nM in assay [1]; less than 0.1 nM in assay [2]; less than 0.1 nM in assay [5]; less than 0.1 nM in assay [7]; 12.9 nM in [8]; less than 0.1 nM in [10]. The GI50 in assay [11] is less than 0.1 nM. The TGI is 6360 nM in [1]; 493 nM in assay [3]; 68.6 nM in assay [4]; 8.58 nM in [5]; 779 nM in assay [6]; 182 nM and 185 nM in assay [7]. For the same compound, the TGI came to 117 nM in [8]; 328 nM in [9]; 1250 nM in [11]; 3.78 nM in assay [12]; 13.8 nM in assay [13].
